The source of these data is patent US20180105876A1, “MEDICATION DOSING REPORT” (BAYCREST TECHNOLOGY PTY LTD, priority 2015, published 2018).

This assay concerns patients suffering major depressive disorder. Briefly: open-label desvenlafaxine treatment of MDD outpatients, HDRS assessed every two weeks. The format is in vivo, human. As to the method: A […] clinical trial was performed to examine the clinical validity of a five gene, combinatorial, pharmacogenetic-based antidepressant dosing support tool for desvenlafaxine dosing. Participants were self-identified Caucasian outpatients aged 18 years and older with a principal DSM-5 diagnosis of MDD (semi-structured psychiatrist assessment) and a 17-item Hamilton Depression Rating Scale (HDRS) score greater than or equal to 18. Participants with other active psychiatric diagnoses were excluded, specifically those suffering with adjustment disorder with depressed mood, persistent depressive disorder, and subjects with a principal clinical diagnosis of a personality disorder. Additional exclusion criteria included pregnancy or breastfeeding, hepatic or renal impairments, co-prescription of known UGT1A1 or ABCB1 inducers/inhibitors (e.g. St John's Wort, valproic acid), regular grapefruit juice consumption, and current smoking which may influence appropriate dosing. A total of 131 individuals were screened for eligibility criteria. […] All participants received desvenlafaxine in an open-label manner during the 10-week study period. At baseline, age, sex, duration of the current depressive episode, and number of depressive episodes was recorded. […] Symptom severity was assessed at baseline and every two-weeks thereafter during the study period with the HDRS. […]

In the case of `CN(C)CC(c1ccc(O)cc1)C1(O)CCCCC1` (centres unmarked) [desvenlafaxine], where the note is “after 10 weeks of desvenlafaxine treatment, 119 MDD participants, dose adjusted every two weeks”, the “participants achieved symptom remission (HDRS score of 7 or less by week 10)” value is on record as 80%. Besides, the “greater than 50% reduction in HDRS from baseline” value (among the 24 participants who did not achieve symptom remission by week 10) was found to be 42%.
